Numbered stars: 1 amine (or outer) side, 2 acyl side, 3 side chain; on linkers, the order of the positions; unused ones are H or OH. Bridge positions count the residues as written; N and C are the ends. Square brackets hold non-standard residues; d marks the D form. Peptide text beside a SMILES is read from it. Suc = O=C(CCC(=O)[*:2])[*:1]; Nle = CCCC[C@H](N)C(=O)O; Dab = NCC[C@H](N)C(=O)O; Dap = NC[C@H](N)C(=O)O

Among the data in patent US20220088146A1, “Melanocortin Receptor-Specific Peptide Formulations and Methods for Gastrointestinal Tract-Specific Delivery” (Palatin Technologies, Inc., priority 2018, published 2022) are Emax values, retold here.

The test concerns the target hMC1r (Homo sapiens, UniProt Q01726). Description: Assay for agonist activity: cAMP accumulation in HBL melanoma cells. It is filed as cell-based. Also on record: endogenous in cells; host or cells: HBL human melanoma cells. Conditions: HBL, compared to NDP-α-MSH as 100%, read-out: MC-1 Emax (average; cAMP HBL). As to the method:
8.2 Assay for Agonist Activity.
Confluent HBL cells that express hMC1r or HEK-293 cells that express recombinant hMC4r were detached from culture plates by incubation in enzyme-free cell dissociation buffer. Dispersed cells were suspended in Earle's Balanced Salt Solution containing 10 mM HEPES (pH 7.5), 1 mM MgCl2, 1 mM glutamine, 0.5% albumin and 0.3 mM 3-isobutyl-1-methyl-xanthine (IBMX), a phosphodiesterase inhibitor. The cells were plated in 96-well plates at a density of 0.4×10^5 cells per well for HBL cells and 0.5×10^5 cells per well for HEK-293 cells and pre-incubated for 10 minutes. Cells were exposed for 15 minutes at 37° C. to peptides of the present invention dissolved in DMSO (final DMSO concentration of 1%) at a concentration range of 0.05-5000 nM in a total assay volume of 200 μL. […] Data analysis was performed by nonlinear regression analysis with Graph-Pad Prism® software.
All results are expressed in nM except for Emax values, which are percentage values. Peptides with the captioned primary sequence were synthesized and purified as described in Section 7 above, with the resulting peptide having the structure depicted.
Background: Cyclic AMP is a second messenger, typically raised through Gs and lowered through Gi signalling.

hMC1r, sequence (Q01726 whole entry): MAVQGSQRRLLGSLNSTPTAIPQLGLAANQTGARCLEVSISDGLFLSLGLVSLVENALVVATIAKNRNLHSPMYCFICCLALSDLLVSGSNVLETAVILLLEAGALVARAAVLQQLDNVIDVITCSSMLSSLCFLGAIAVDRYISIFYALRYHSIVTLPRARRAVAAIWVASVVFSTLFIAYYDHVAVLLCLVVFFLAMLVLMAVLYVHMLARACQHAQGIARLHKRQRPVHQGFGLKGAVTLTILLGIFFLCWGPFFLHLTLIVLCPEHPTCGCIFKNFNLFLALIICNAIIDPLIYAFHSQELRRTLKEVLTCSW

The Emax is the maximal effect, on the per cent scale that the assay sets. For the compound `CCCC[C@H](NC(C)=O)C(=O)N[C@H]1CCC(=O)NCCCC[C@@H](C(=O)N[C@@H](Cc2c[nH]c3ccccc23)C(N)=O)NC(=O)[C@H](CCCNC(=N)N)NC(=O)[C@@H](Cc2ccccc2)NC(=O)[C@H](Cc2c[nH]cn2)NC1=O` [Example 9.1, Ac-Nle-cyclo(Glu-His-D-Phe-Arg-Lys)-Trp-NH2], the Emax amounted to 97%.

On to `CCCC[C@H](NC(C)=O)C(=O)N[C@H]1CCC(=O)NCC[C@@H](C(=O)N[C@@H](Cc2c[nH]c3ccccc23)C(N)=O)NC(=O)[C@H](CCCNC(=N)N)NC(=O)[C@@H](Cc2ccccc2)NC(=O)[C@H](Cc2c[nH]cn2)NC1=O` [Example 9.2, Ac-Nle-cyclo(Glu-His-D-Phe-Arg-Dab)-Trp-NH2], for which the maximal effect (Emax) worked out at 95%.

`CCCC[C@H](NC(C)=O)C(=O)N[C@H]1CC(=O)NC[C@@H](C(=O)N[C@@H](Cc2c[nH]c3ccccc23)C(N)=O)NC(=O)[C@H](CCCNC(=N)N)NC(=O)[C@@H](Cc2ccccc2)NC(=O)[C@H](Cc2c[nH]cn2)NC1=O` [Example 9.4, Ac-Nle-cyclo(Asp-His-D-Phe-Arg-Dap)-Trp-NH2] (Ac-[Nle]DH[dF]R[Dap]W-NH2; lactam 2-6): the maximum response (Emax) was 88%. The value for `CCCC[C@H](NC(C)=O)C(=O)N[C@H]1CSSC[C@@H](C(=O)N[C@@H](Cc2c[nH]c3ccccc23)C(N)=O)NC(=O)[C@H](CCCNC(=N)N)NC(=O)[C@@H](Cc2ccccc2)NC(=O)[C@H](Cc2c[nH]cn2)NC1=O` [Example 9.5, Ac-Nle-cyclo(Cys-His-D-Phe-Arg-Cys)-Trp-NH2] was 87%; that for `CCCC[C@H](NC(C)=O)C(=O)N[C@H]1CCC(=O)NCCC[C@@H](C(=O)N[C@@H](Cc2c[nH]c3ccccc23)C(N)=O)NC(=O)[C@H](CCCNC(=N)N)NC(=O)[C@@H](Cc2ccccc2)NC(=O)[C@H](Cc2c[nH]cn2)NC1=O` [Example 9.6, Ac-Nle-cyclo(Glu-His-D-Phe-Arg-Orn)-Trp-NH2] was 91%. As to `CCCC[C@H](NC(C)=O)C(=O)N[C@H]1CCC(=O)NCC[C@@H](C(=O)N[C@H](Cc2c[nH]c3ccccc23)C(N)=O)NC(=O)[C@H](CCCNC(=N)N)NC(=O)[C@@H](Cc2ccccc2)NC(=O)[C@H](Cc2c[nH]cn2)NC1=O` [Example 9.7, Ac-Nle-cyclo(Glu-His-D-Phe-Arg-Dab)-D-Trp-NH2], the Emax is 93%. Under `CCCC[C@H](NC(C)=O)C(=O)N[C@H]1CCC(=O)NCC[C@@H](C(=O)N[C@@H](Cc2c[nH]c3ccccc23)C(N)=O)NC(=O)[C@H](CCCNC(=N)N)NC(=O)[C@H](Cc2ccccc2)NC(=O)[C@H](Cc2c[nH]cn2)NC1=O` [Example 9.8, Ac-Nle-cyclo(Glu-His-Phe-Arg-Dab)-Trp-NH2] stands 88%; under `CCCC[C@H](NC(C)=O)C(=O)N[C@H]1CCC(=O)NCC[C@@H](C(=O)N[C@H](Cc2cccc3ccccc23)C(N)=O)NC(=O)[C@H](CCCNC(=N)N)NC(=O)[C@@H](Cc2ccccc2)NC(=O)[C@H](Cc2c[nH]cn2)NC1=O` [Example 9.9, Ac-Nle-cyclo(Glu-His-D-Phe-Arg-Dab)-D-Nal 1-NH2], 73%; under `CCCC[C@H](NC(C)=O)C(=O)N[C@H]1CCC(=O)NCC[C@@H](C(=O)N[C@@H](Cc2ccc3ccccc3c2)C(N)=O)NC(=O)[C@H](CCCNC(=N)N)NC(=O)[C@@H](Cc2ccccc2)NC(=O)[C@H](Cc2c[nH]cn2)NC1=O` [Example 9.10, Ac-Nle-cyclo(Glu-His-D-Phe-Arg-Dab)-Nal 2-NH2], 83%. Turning to `CCCC[C@H](NC(C)=O)C(=O)N[C@H]1CCC(=O)NCC[C@@H](C(=O)N[C@H](Cc2ccc3ccccc3c2)C(N)=O)NC(=O)[C@H](CCCNC(=N)N)NC(=O)[C@@H](Cc2ccccc2)NC(=O)[C@H](Cc2c[nH]cn2)NC1=O` [Example 9.11, Ac-Nle-cyclo(Glu-His-D-Phe-Arg-Dab)-D-Nal 2-NH2], the Emax stood at 69%. The value for `CC(=O)N[C@H](Cc1ccccc1)C(=O)N[C@H]1CCC(=O)NCC[C@@H](C(=O)N[C@@H](Cc2c[nH]c3ccccc23)C(N)=O)NC(=O)[C@H](CCCNC(=N)N)NC(=O)[C@@H](Cc2ccccc2)NC(=O)[C@H](Cc2c[nH]cn2)NC1=O` [Example 9.12, Ac-D-Phe-cyclo(Glu-His-D-Phe-Arg-Dab)-Trp-NH2] was 75%; that for `CC(=O)N[C@@H](Cc1ccccc1)C(=O)N[C@H]1CCC(=O)NCC[C@@H](C(=O)N[C@@H](Cc2c[nH]c3ccccc23)C(N)=O)NC(=O)[C@H](CCCNC(=N)N)NC(=O)[C@@H](Cc2ccccc2)NC(=O)[C@H](Cc2c[nH]cn2)NC1=O` [Example 9.13, Ac-Phe-cyclo(Glu-His-D-Phe-Arg-Dab)-Trp-NH2] was 75%; that for `N=C(N)NCCC[C@@H]1NC(=O)[C@@H](Cc2ccccc2)NC(=O)[C@H](Cc2c[nH]cn2)NC(=O)CCC(=O)NCC[C@@H](C(=O)N[C@@H](Cc2c[nH]c3ccccc23)C(N)=O)NC1=O` [Example 9.14, cyclo(Suc-His-Phe-Arg-Dab)-Trp-NH2] (H[dF]R[Dab]W-NH2; linker N-4 via Suc) was 80%. The value for `CCCC(=O)N[C@H]1CCC(=O)NCC[C@@H](C(=O)N[C@@H](Cc2c[nH]c3ccccc23)C(N)=O)NC(=O)[C@H](CCCNC(=N)N)NC(=O)[C@@H](Cc2ccccc2)NC(=O)[C@H](Cc2c[nH]cn2)NC1=O` [Example 9.15, CH3—(CH2)2—C(═O)-cyclo(Glu-His-D-Phe-Arg-Dab)-Trp-NH2] was 91%; that for `CCCCC(=O)N[C@H]1CCC(=O)NCC[C@@H](C(=O)N[C@@H](Cc2c[nH]c3ccccc23)C(N)=O)NC(=O)[C@H](CCCNC(=N)N)NC(=O)[C@@H](Cc2ccccc2)NC(=O)[C@H](Cc2c[nH]cn2)NC1=O` [Example 9.16, CH3—(CH2)3—C(═O)-cyclo(Glu-His-D-Phe-Arg-Dab)-Trp-NH2] was 89%. The value for `CCCCCC(=O)N[C@H]1CCC(=O)NCC[C@@H](C(=O)N[C@@H](Cc2c[nH]c3ccccc23)C(N)=O)NC(=O)[C@H](CCCNC(=N)N)NC(=O)[C@@H](Cc2ccccc2)NC(=O)[C@H](Cc2c[nH]cn2)NC1=O` [Example 9.17, CH3—(CH2)4—C(═O)-cyclo(Glu-His-D-Phe-Arg-Dab)-Trp-NH2] was 90%; that for `CCCCCCC(=O)N[C@H]1CCC(=O)NCC[C@@H](C(=O)N[C@@H](Cc2c[nH]c3ccccc23)C(N)=O)NC(=O)[C@H](CCCNC(=N)N)NC(=O)[C@@H](Cc2ccccc2)NC(=O)[C@H](Cc2c[nH]cn2)NC1=O` [Example 9.18, CH3—(CH2)5—C(═O)-cyclo(Glu-His-D-Phe-Arg-Dab)-Trp-NH2] was 87%. Regarding `N=C(N)NCCC[C@@H]1NC(=O)[C@@H](Cc2ccccc2)NC(=O)[C@H](Cc2c[nH]cn2)NC(=O)[C@@H](NC(=O)C2CC2)CCC(=O)NCC[C@@H](C(=O)N[C@@H](Cc2c[nH]c3ccccc23)C(N)=O)NC1=O` [Example 9.19, cyclo-propanoyl-cyclo(Glu-His-D-Phe-Arg-Dab)-Trp-NH2], the maximum response (Emax) was 83%. The value for `N=C(N)NCCC[C@@H]1NC(=O)[C@@H](Cc2ccccc2)NC(=O)[C@H](Cc2c[nH]cn2)NC(=O)[C@@H](NC(=O)C2CCCCC2)CCC(=O)NCC[C@@H](C(=O)N[C@@H](Cc2c[nH]c3ccccc23)C(N)=O)NC1=O` [Example 9.20, cyclo-hexanoyl-cyclo(Glu-His-D-Phe-Arg-Dab)-Trp-NH2] was 79%; that for `N=C(N)NCCC[C@@H]1NC(=O)[C@@H](Cc2ccccc2)NC(=O)[C@H](Cc2c[nH]cn2)NC(=O)[C@@H](NC(=O)CC2CCCC2)CCC(=O)NCC[C@@H](C(=O)N[C@@H](Cc2c[nH]c3ccccc23)C(N)=O)NC1=O` [Example 9.21, cyclopentyl acetyl-cyclo(Glu-His-D-Phe-Arg-Dab)-Trp-NH2] was 83%. Under `N=C(N)NCCC[C@@H]1NC(=O)[C@@H](Cc2ccccc2)NC(=O)[C@H](Cc2c[nH]cn2)NC(=O)[C@@H](NC(=O)CC2CCCCC2)CCC(=O)NCC[C@@H](C(=O)N[C@@H](Cc2c[nH]c3ccccc23)C(N)=O)NC1=O` [Example 9.22, cyclohexyl acetyl-cyclo(Glu-His-D-Phe-Arg-Dab)-Trp-NH2] stands 85%; under `N=C(N)NCCC[C@@H]1NC(=O)[C@@H](Cc2ccccc2)NC(=O)[C@H](Cc2c[nH]cn2)NC(=O)[C@@H](NC(=O)Cc2ccccc2)CCC(=O)NCC[C@@H](C(=O)N[C@@H](Cc2c[nH]c3ccccc23)C(N)=O)NC1=O` [Example 9.23, phenyl acetyl-cyclo(Glu-His-D-Phe-Arg-Dab)-Trp-NH2], 82%. Under `N=C(N)NCCC[C@@H]1NC(=O)[C@@H](Cc2ccccc2)NC(=O)[C@H](Cc2c[nH]cn2)NC(=O)[C@@H](NC(=O)CCc2ccccc2)CCC(=O)NCC[C@@H](C(=O)N[C@@H](Cc2c[nH]c3ccccc23)C(N)=O)NC1=O` [Example 9.24, phenyl propanoyl-cyclo(Glu-His-D-Phe-Arg-Dab)-Trp-NH2] stands 83%; under `CCCC[C@H](NC(C)=O)C(=O)N[C@H]1CCC(=O)NCC[C@@H](C(=O)N[C@@H](C)C(N)=O)NC(=O)[C@H](CCCNC(=N)N)NC(=O)[C@@H](Cc2ccccc2)NC(=O)[C@H](Cc2c[nH]cn2)NC1=O` [Example 9.25, Ac-Nle-cyclo(Glu-His-D-Phe-Arg-Dab)-Ala-NH2] (Ac-[Nle]EH[dF]R[Dab]A-NH2; lactam 2-6), 97%. Regarding `CCCC[C@H](NC(C)=O)C(=O)N[C@H]1CCNC(=O)CCC(=O)NCC[C@@H](C(=O)N[C@@H](Cc2c[nH]c3ccccc23)C(N)=O)NC(=O)[C@H](CCCNC(=N)N)NC(=O)[C@@H](Cc2ccccc2)NC(=O)[C@H](Cc2c[nH]cn2)NC1=O` [Example 9.27, Ac-Nle-cyclo(Dab-His-D-Phe-Arg-Dab)-Trp-NH2], the maximal effect (Emax) worked out at 92%.
